According to patent US12564638B2 (SHANGHAITECH UNIVERSITY, priority 2019, dated 2026):
Where two headings read alike, the source gives them in different places.

What was measured:
Type in all cases: cell-based
[1] = test system: HCC827 cells (EGFR Exon19 del, non-small cell lung cancer cells); assay: Cell viability assay (WST/CCK8), HCC827 cells; details: Homo sapiens, HCC827, 72 h, HCC827 (Exon19 Del), 72 hours, read-out: IC50 (half inhibitory concentration)
Procedure, shortened: (§1)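 Plated 3 000 cells/well in complete RPMI1640 the day before dosing; controls were DMSO (negative) and EGFR TKIs (positive).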

[2] = test system: PC9 cells (EGFR Exon 19 del, non-small cell lung cancer cells); assay: Cell viability assay (WST/CCK8), PC9 cells; details: Homo sapiens, PC-9, PC9 (Exon19 Del), 72 hours, read-out: IC50 (half inhibitory concentration)
Procedure, shortened: as §1

[3] = test system: BT474 cells (HER2 positive breast cancer cells); assay: Cell viability assay (CCK8), BT474 cells; details: Homo sapiens, BT-474, Table 10, BT474, 72 hours, read-out: IC50 (half inhibitory concentration)
Description: The cell lines with abnormal EGFR expression used are as follows: • HCC827 cells (EGFR Exon19 del, non-small cell lung cancer cells); • PC9 cells (EGFR Exon 19 del, non-small cell lung cancer cells); • PC9BracA1 (EGFR Exon 19 del+T790M, non-small cell lung cancer cells) • H1975 (EGFR Exon T790M+L858R mutation, non-small cell lung cancer cell line) • BT474 cells (HER2 positive breast cancer cells)
All of the half inhibitory concentrations (IC50) of these compounds of the present invention were determined with WST reagent from Fuyuan Biotec Company. The specific experiment procedures are as follows: Cancer cells were planted in 96-well-plate at the density of 3 000 cells per well with 100 μL RPMI1640 completed culture medium. In the next day, compounds with indicated concentrations were added to the cells, DMSO was used as the negative control and the EGFR TKIs were used to treat cells as the positive groups. After 72 hours drug treatment, cell viability was measured by using the WST reagent following the instructions. The growth inhibition curve of the compounds on cells were plotted by Prism GraphPad, and the compounds IC50 calculated from it.
The cell viability assays were taken to determine the anti-tumor activity of these indicated compounds in BT474 cells, which can overexpress HER2 protein. The cells were treated with the gradient concentration of these compounds (the maximum concentration: 10 μM; 3-fold dilution ratio, 10 concentration gradients) for 72 hours and then incubated with the CCK8 reagent to determine the cell viability.

[4] = Table 6, canertinib-based compounds, WST

Q: `COc1cc2ncnc(Nc3ccc(F)c(Cl)c3)c2cc1NC(=O)/C=C/CN1CCC(N)CC1` [SIAIS249077, (E)-4-(4-aminopiperidin-1-yl)-N-(4-((3-chloro-4-fluorophenyl)amino)-7-methoxyquinazolin-6-yl)but-2-enamide] was tested. Which IC50 ([1]; WST (CCK8)) did it give?
A: 20 nM

Q: What about the IC50 ([2]; WST (CCK8)) of the same compound?
A: 0.8 nM

Q: And the IC50 [3]?
A: 12.3 nM

Q: Which IC50 ([1]; WST (CCK8)) does the source give for `COc1cc2ncnc(Nc3ccc(F)c(Cl)c3)c2cc1NC(=O)/C=C/CN1CCC(NC(=O)CCNc2cccc3c2C(=O)N(C2CCC(=O)NC2=O)C3=O)CC1` (stereo not drawn) [SIAIS249082, (E)-N-(4-((3-chloro-4-fluorophenyl)amino)-7-methoxyquinazolin-6-yl)-4-(4-(3-((2-(2,6-dioxopiperidin-3-yl)-1,3-dioxoisoindolin-4-yl)amino)propanamido)piperidin-1-yl)but-2-enamide] here?
A: 6 nM

Q: What about the IC50 ([2]; WST (CCK8)) of the same compound?
A: 6.1 nM

Q: And the IC50 [3]?
A: 52.5 nM

Q: Which IC50 [1, 4] does the source give for `C=CC(=O)Nc1cc2c(Nc3ccc(F)c(Cl)c3)ncnc2cc1OCCCN1CCN(C(=O)CCC(=O)NCCOCCNc2cccc3c2C(=O)N(C2CCC(=O)NC2=O)C3=O)CC1` (stereo not drawn) [SIAIS249099, 4-(4-(3-((6-acrylamido-4-((3-chloro-4-fluorophenyl)amino)quinazolin-7-yl)oxy)propyl)piperazin-1-yl)-N-(2-(2-((2-(2,6-dioxopiperidin-3-yl)-1,3-dioxoisoindolin-4-yl)amino)ethoxy)ethyl)-4-oxobutanamide] here?
A: 11.8 nM

Q: And the IC50 [2, 4]?
A: 29.7 nM

Q: What about the IC50 [3] of the same compound?
A: 35.6 nM

Q: Which results are given for `C=CC(=O)Nc1cc2c(Nc3ccc(F)c(Cl)c3)ncnc2cc1OCCCN1CCN(C(=O)CCc2ccc(CCC(=O)N[C@H](C(=O)N3C[C@H](O)C[C@H]3C(=O)NCc3ccc(-c4scnc4C)cc3)C(C)(C)C)cc2)CC1` [SIAIS249102, (2S,4R)-1-((S)-2-(3-(4-(3-(4-(3-((6-acrylamido-4-((3-chloro-4-fluorophenyl)amino)quinazolin-7-yl)oxy)propyl)piperazin-1-yl)-3-oxopropyl)phenyl)propanamido)-3,3-dimethylbutanoyl)-4-hydroxy-N-(4-(4-methylthiazol-5-yl)benzyl)pyrrolidine-2-carboxamide]?
A: IC50 [1, 4]: 25.2 nM; IC50 [2, 4]: 16 nM; IC50 [3]: 3.8 nM

Q: What does the source list for `COc1cc2ncnc(Nc3ccc(F)c(Cl)c3)c2cc1NC(=O)/C=C/CN1CCC(N2CCN(C(=O)CCCCCCSc3cccc4c3C(=O)N(C3CCC(=O)NC3=O)C4=O)CC2)CC1` (stereo not drawn) [SIAIS262033, (E)-N-(4-((3-chloro-4-fluorophenyl)amino)-7-methoxyquinazolin-6-yl)-4-(4-(4-(7-((2-(2,6-dioxopiperidin-3-yl)-1,3-dioxoisoindolin-4-yl)thio)heptanoyl)piperazin-1-yl)piperidin-1-yl)but-2-enamide]?
A: IC50 ([1]; WST (CCK8)): ~1 nM; IC50 ([2]; WST (CCK8)): 3.8 nM; IC50 [3]: 0.7 nM

Q: Which IC50 [3] does the source give for `COc1cc2ncnc(Nc3ccc(F)c(Cl)c3)c2cc1NC(=O)/C=C/CN1CCC(N2CCN(CCCCCSc3cccc4c3CN(C3CCC(=O)NC3=O)C4=O)CC2)CC1` (stereo not drawn) [SIAIS262064, (E)-N-(4-((3-chloro-4-fluorophenyl)amino)-7-methoxyquinazolin-6-yl)-4-(4-(4-(5-((2-(2,6-dioxopiperidin-3-yl)-1-oxoisoindolin-4-yl)thio)pentyl)piperazin-1-yl)piperidin-1-yl)but-2-enamide] here?
A: 1.85 nM

Q: For `COc1cc2ncnc(Nc3ccc(F)c(Cl)c3)c2cc1NC(=O)/C=C/CN1CCC(NC(=O)CCCCSc2cccc3c2CN(C2CCC(=O)NC2=O)C3=O)CC1` (stereo not drawn) [SIAIS262113, (E)-N-(1-(4-((4-((3-chloro-4-fluorophenyl)amino)-7-methoxyquinazolin-6-yl)amino)-4-oxobut-2-en-1-yl)piperidin-4-yl)-5-((2-(2,6-dioxopiperidin-3-yl)-1-oxoisoindolin-4-yl)thio)pentanamide], which IC50 ([1]; WST (CCK8)) is on record?
A: 49 nM

Q: What about the IC50 ([2]; WST (CCK8)) of the same compound?
A: 3.9 nM

Q: What about the IC50 [3] of the same compound?
A: 67.7 nM

Q: `COc1cc2ncnc(Nc3ccc(F)c(Cl)c3)c2cc1NC(=O)/C=C/CN1CCC(NC(=O)CCCCCSc2cccc3c2CN(C2CCC(=O)NC2=O)C3=O)CC1` (stereo not drawn) [SIAIS262114, (E)-N-(1-(4-((4-((3-chloro-4-fluorophenyl)amino)-7-methoxyquinazolin-6-yl)amino)-4-oxobut-2-en-1-yl)piperidin-4-yl)-6-((2-(2,6-dioxopiperidin-3-yl)-1-oxoisoindolin-4-yl)thio)hexanamide] was tested. Which IC50 ([1]; WST (CCK8)) did it give?
A: 4 nM

Q: What about the IC50 ([2]; WST (CCK8)) of the same compound?
A: 11.9 nM

Q: What about the IC50 [3] of the same compound?
A: 90 nM

Q: `COc1cc2ncnc(Nc3ccc(F)c(Cl)c3)c2cc1NC(=O)/C=C/CN1CCC(NCCCC#Cc2cccc3c2CN(C2CCC(=O)NC2=O)C3=O)CC1` (stereo not drawn) [SIAIS262116, (E)-N-(4-((3-chloro-4-fluorophenyl)amino)-7-methoxyquinazolin-6-yl)-4-(4-((5-(2-(2,6-dioxopiperidin-3-yl)-1-oxoisoindolin-4-yl)pent-4-yn-1-yl)amino)piperidin-1-yl)but-2-enamide] was tested. Which IC50 ([1]; WST (CCK8)) did it give?
A: 11 nM

Q: And the IC50 ([2]; WST (CCK8))?
A: 3.3 nM

Q: And the IC50 [3]?
A: 83 nM

Q: Which results are given for `COc1cc2ncnc(Nc3ccc(F)c(Cl)c3)c2cc1NC(=O)/C=C/CN1CCC(NCCCCC#Cc2cccc3c2CN(C2CCC(=O)NC2=O)C3=O)CC1` (stereo not drawn) [SIAIS262117, (E)-N-(4-((3-chloro-4-fluorophenyl)amino)-7-methoxyquinazolin-6-yl)-4-(4-((6-(2-(2,6-dioxopiperidin-3-yl)-1-oxoisoindolin-4-yl)hex-5-yn-1-yl)amino)piperidin-1-yl)but-2-enamide]?
A: IC50 ([1]; WST (CCK8)): 16 nM; IC50 ([2]; WST (CCK8)): 31.2 nM; IC50 [3]: 484 nM

Q: `C=CC(=O)Nc1cc2c(Nc3ccc(F)c(Cl)c3)ncnc2cc1OCCCN1CCN(C(=O)CSc2cccc3c2CN(C2CCC(=O)NC2=O)C3=O)CC1` (stereo not drawn) [SIAIS262121, N-(4-((3-chloro-4-fluorophenyl)amino)-7-(3-(4-(2-((2-(2,6-dioxopiperidin-3-yl)-1-oxoisoindolin-4-yl)thio)acetyl)piperazin-1-yl)propoxy)quinazolin-6-yl)acrylamide] was tested. Which IC50 [1, 4] did it give?
A: 9.3 nM

Q: And the IC50 [2, 4]?
A: 43.4 nM

Q: And the IC50 [3]?
A: 5.3 nM

Q: With `C=CC(=O)Nc1cc2c(Nc3ccc(F)c(Cl)c3)ncnc2cc1OCCCN1CCN(C(=O)CCCC(=O)N[C@H](C(=O)N2C[C@H](O)C[C@H]2C(=O)NCc2ccc(-c3scnc3C)cc2)C(C)(C)C)CC1` [SIAIS262128, (2S,4R)-1-((S)-2-(5-(4-(3-((6-acrylamido-4-((3-chloro-4-fluorophenyl)amino)quinazolin-7-yl)oxy)propyl)piperazin-1-yl)-5-oxopentanamido)-3,3-dimethylbutanoyl)-4-hydroxy-N-(4-(4-methylthiazol-5-yl)benzyl)pyrrolidine-2-carboxamide] as the compound, how does the IC50 [1, 4] read?
A: 14.3 nM

Q: What about the IC50 [2, 4] of the same compound?
A: 15.9 nM

Q: What about the IC50 [3] of the same compound?
A: 42.1 nM

Q: Which results are given for `COc1cc2ncnc(Nc3ccc(F)c(Cl)c3)c2cc1NC(=O)/C=C/CN1CCC(N2CCN(C(=O)CCCCCCNc3cccc4c3CN(C3CCC(=O)NC3=O)C4=O)CC2)CC1` (stereo not drawn) [SIAIS337036, (E)-N-(4-((3-chloro-4-fluorophenyl)amino)-7-methoxyquinazolin-6-yl)-4-(4-(4-(7-((2-(2,6-dioxopiperidin-3-yl)-1-oxoisoindolin-4-yl)amino)heptanoyl)piperazin-1-yl)piperidin-1-yl)but-2-enamide]?
A: IC50 ([1]; WST (CCK8)): 0.7 nM; IC50 ([2]; WST (CCK8)): 1.3 nM

Q: How did the IC50 ([1]; WST (CCK8)) turn out when `COc1cc2ncnc(Nc3ccc(F)c(Cl)c3)c2cc1NC(=O)/C=C/CN1CCC(N2CCN(C(=O)CCCCCCCCCSc3cccc4c3CN(C3CCC(=O)NC3=O)C4=O)CC2)CC1` (stereo not drawn) [SIAIS337037, (E)-N-(4-((3-chloro-4-fluorophenyl)amino)-7-methoxyquinazolin-6-yl)-4-(4-(4-(10-((2-(2,6-dioxopiperidin-3-yl)-1-oxoisoindolin-4-yl)thio)decanoyl)piperazin-1-yl)piperidin-1-yl)but-2-enamide] was run?
A: 0.3 nM

Q: What about the IC50 ([2]; WST (CCK8)) of the same compound?
A: 0.7 nM

Q: `COc1cc2ncnc(Nc3ccc(F)c(Cl)c3)c2cc1NC(=O)/C=C/CN1CCC(N2CCN(C(=O)CCCCCCCCCCSc3cccc4c3CN(C3CCC(=O)NC3=O)C4=O)CC2)CC1` (stereo not drawn) [SIAIS337038, (E)-N-(4-((3-chloro-4-fluorophenyl)amino)-7-methoxyquinazolin-6-yl)-4-(4-(4-(11-((2-(2,6-dioxopiperidin-3-yl)-1-oxoisoindolin-4-yl)thio)undecanoyl)piperazin-1-yl)piperidin-1-yl)but-2-enamide] was tested. Which IC50 ([1]; WST (CCK8)) did it give?
A: 0.3 nM

Q: And the IC50 ([2]; WST (CCK8))?
A: 1.6 nM

Q: Which results are given for `COc1cc2ncnc(Nc3ccc(F)c(Cl)c3)c2cc1NC(=O)/C=C/CN1CCC(N2CCN(CCCCCCCCCCSc3cccc4c3CN(C3CCC(=O)NC3=O)C4=O)CC2)CC1` (stereo not drawn) [SIAIS337039, (E)-N-(4-((3-chloro-4-fluorophenyl)amino)-7-methoxyquinazolin-6-yl)-4-(4-(4-(10-((2-(2,6-dioxopiperidin-3-yl)-1-oxoisoindolin-4-yl)thio)decyl)piperazin-1-yl)piperidin-1-yl)but-2-enamide]?
A: IC50 ([1]; WST (CCK8)): 5.7 nM; IC50 ([2]; WST (CCK8)): 19.7 nM
